{"source": "ChEMBL document CHEMBL5528006", "about": "“Design, synthesis, and evaluation of 5,15-diaryltetranaphtho [2,3]porphyrins as photosensitizers in real-time photodynamic therapy and photodiagnosis” (Eur J Med Chem, 2024)", "key": {"ECa-109 cell line [1]": {"tested_on": "ECa-109 cell line", "experiment": "Induction of apoptosis in human Eca-109 cells assessed as late apoptotic cells at 2 uM incubated for 24 hrs under photoirradiation with 730 nm laser light at dose of 8 J/cm^2 by Annexin V-FITC/Propidium Iodide staining based flow cytometry analysis (reference value: 1.76 %)", "assay_type": "functional"}, "ECa-109 cell line [2]": {"tested_on": "ECa-109 cell line", "experiment": "Phototoxicity against human Eca-109 cells assessed as reduction of cell viability incubated for 24 hrs under 730 nm laser irradiation at light dose of 12 J/cm^2 by MTT assay", "assay_type": "functional, cell-based", "conditions": "Homo sapiens, ECa-109, light or radiation study, 24 h"}, "[3]": {"experiment": "Selectivity index, ratio of IC50 for dark toxicity in human Eca-109 cells to IC50 for phototoxicity against human Eca-109 cells under 730 nm laser irradiation at light dose of 12 J/cm^2", "assay_type": "cell-based", "conditions": "Eca-109 cells, read-out: Ratio IC50"}, "[4]": {"experiment": "Photophysical property of the compound assessed as fluorescence quantum yield at 10 uM by UV-Visible spectrophotometric analysis", "assay_type": "physicochemical"}, "ECa-109 cell line [5]": {"tested_on": "ECa-109 cell line", "experiment": "Antitumor activity against human Eca-109 cells xenografted in BALB/c mouse assessed as tumor growth inhibition at 3 mg/kg, iv measured after 24 hrs post-injection", "assay_type": "functional, organism-based"}, "[6]": {"experiment": "Drug localization in lysosome of human Eca-109 cells assessed as red fluorescence at 1 uM incubated for 24 hrs by Lyso-tracker Green staining based confocal laser scanning microscopy", "assay_type": "ADME, subcellular", "conditions": "eca-109, 24 h"}, "ECa-109 cell line [7]": {"tested_on": "ECa-109 cell line", "experiment": "Induction of apoptosis in human Eca-109 cells assessed as early apoptotic cells at 2 uM incubated for 24 hrs under photoirradiation with 730 nm laser light at dose of 8 J/cm^2 by Annexin V-FITC/Propidium Iodide staining based flow cytometry analysis (reference value: 0.45 %)", "assay_type": "functional"}, "ECa-109 cell line [8]": {"tested_on": "ECa-109 cell line", "experiment": "Phototoxicity against human Eca-109 cells assessed as reduction of cell viability at 0.25 to 2 uM incubated for 24 hrs under 730 nm laser irradiation at light dose of 12 J/cm^2by MTT assay", "assay_type": "functional, cell-based", "conditions": "dose 0.25-2 µM"}, "[9]": {"experiment": "Toxicity in BALB/c nude mouse xenografted with human Eca-109 cells assessed as survival rate at 3 mg/kg, iv measured within 6 days", "assay_type": "organism-based", "conditions": "in vivo, 144 h, time 6 day"}, "ECa-109 cell line [10]": {"tested_on": "ECa-109 cell line", "experiment": "Induction of apoptosis in human Eca-109 cells assessed as viable cells at 2 uM incubated for 24 hrs under photoirradiation with 730 nm laser light at dose of 8 J/cm^2 by Annexin V-FITC/Propidium Iodide staining based flow cytometry analysis (reference value: 97.7 %)", "assay_type": "functional", "conditions": "ECa-109, light or radiation study, read-out: Activity"}, "ECa-109 cell line [11]": {"tested_on": "ECa-109 cell line", "experiment": "Induction of apoptosis in human Eca-109 cells xenografted in BALB/c mouse at 3 mg/kg, iv pretreated for 24 hrs followed by photoirradiation with 730 nm laser light at dose of 100 J/cm^2 and measured after 1 day by TUNEL staining based assay", "assay_type": "functional, organism-based", "conditions": "time 2.0 day"}, "ECa-109 cell line [12]": {"tested_on": "ECa-109 cell line", "experiment": "Induction of apoptosis in human Eca-109 cells assessed as necrotic cells at 2 uM incubated for 24 hrs under photoirradiation with 730 nm laser light at dose of 8 J/cm^2 by Annexin V-FITC/Propidium Iodide staining based flow cytometry analysis (reference value: 0.13 %)", "assay_type": "functional"}, "[13]": {"experiment": "Drug accumulation in BALB/c mouse xenografted with human Eca-109 cells at 3 mg/kg, iv measured within 4 hrs by fluorescence imaging analysis", "assay_type": "ADME, organism-based", "conditions": "in vivo"}, "ECa-109 cell line [14]": {"tested_on": "ECa-109 cell line", "experiment": "Induction of apoptosis in human Eca-109 cells assessed as late apoptotic cells at 2 uM incubated for 24 hrs under dark condition by Annexin V-FITC/Propidium Iodide staining based flow cytometry analysis (reference value: 0 %)", "assay_type": "functional"}, "ECa-109 cell line [15]": {"tested_on": "ECa-109 cell line", "experiment": "Induction of apoptosis in human Eca-109 cells assessed as early apoptotic cells at 2 uM incubated for 24 hrs under dark condition by Annexin V-FITC/Propidium Iodide staining based flow cytometry analysis (reference value: 0 %)", "assay_type": "functional"}, "ECa-109 cell line [16]": {"tested_on": "ECa-109 cell line", "experiment": "Dark toxicity in human Eca-109 cells assessed as reduction of cell viability at 2 uM incubated for 24 hrs by MTT assay", "assay_type": "cell-based", "conditions": "eca-109, 24 h"}, "[17]": {"experiment": "Toxicity in BALB/c mouse xenografted with human Eca-109 cells assessed as increase in body weight at 3 mg/kg, iv pretreated for 24 hrs followed by photoirradiation with 730 nm laser light at dose of 100 J/cm^2 and measured every other day for 14 days", "assay_type": "organism-based", "conditions": "in vivo, 360 h, time 15 day"}, "[18]": {"experiment": "Induction of singlet oxygen quantum yield at 1 uM under irradiation with 730 nm light at 5 mW/cm2 by DPBF based assay", "assay_type": "functional"}, "ECa-109 cell line [19]": {"tested_on": "ECa-109 cell line", "experiment": "Induction of apoptosis in human Eca-109 cells assessed as necrotic cells at 2 uM incubated for 24 hrs under dark condition by Annexin V-FITC/Propidium Iodide staining based flow cytometry analysis (reference value: 0 %)", "assay_type": "functional"}, "ECa-109 cell line [20]": {"tested_on": "ECa-109 cell line", "experiment": "(§1) Antitumor activity against human Eca-109 cells xenografted in BALB/c mouse assessed as tumor growth inhibition at 3 mg/kg, iv pretreated for 24 hrs followed by photoirradiation with 730 nm laser light at dose of 100 J/cm^2 and measured every other day for 14 days", "assay_type": "functional, organism-based", "conditions": "time 15.0 day"}, "[21]": {"experiment": "Toxicity in BALB/c nude mouse xenografted with human Eca-109 cells assessed as survival rate at 3 mg/kg, iv measured within 6 days relative to control", "assay_type": "organism-based", "conditions": "in vivo, iv, 3 mg/kg, 144 h, time 6 day"}, "ECa-109 cell line [22]": {"tested_on": "ECa-109 cell line", "experiment": "as §1, with “pyknotic effect” for “tumor growth inhibition”, “days by hematoxylin and eosin staining based analysis” for “days”", "assay_type": "functional, organism-based", "conditions": "time 15.0 day"}, "[23]": {"experiment": "Dark toxicity in human Eca-109 cells assessed as reduction of cell viability incubated for 24 hrs by MTT assay", "assay_type": "cell-based", "conditions": "human, Eca-109 cells"}, "ECa-109 cell line [24]": {"tested_on": "ECa-109 cell line", "experiment": "as §1, with “pronounced necrosis” for “tumor growth inhibition”, “days by hematoxylin and eosin staining based analysis” for “days”", "assay_type": "functional, organism-based", "conditions": "time 15.0 day"}, "[25]": {"experiment": "Drug accumulation in BALB/c mouse tumor xenografted with human Eca-109 cells assessed as increase in fluorescence intensity at 3 mg/kg, iv measured after 8 to 24 hrs by fluorescence imaging analysis", "assay_type": "ADME, organism-based", "conditions": "in vivo, time 8-24 hrs"}, "ECa-109 cell line [26]": {"tested_on": "ECa-109 cell line", "experiment": "Induction of apoptosis in human Eca-109 cells assessed as viable cells at 2 uM incubated for 24 hrs under dark condition by Annexin V-FITC/Propidium Iodide staining based flow cytometry analysis (reference value: 100 %)", "assay_type": "functional", "conditions": "read-out: Activity"}, "[27]": {"experiment": "Drug localization in nucleus of human Eca-109 cells assessed as red fluorescence at 1 uM incubated for 24 hrs by Hoechst 33342 staining based confocal laser scanning microscopy", "assay_type": "ADME, subcellular", "conditions": "eca-109, 24 h"}}, "note": "pIC50: −log10 of the molar value. Calls of active or inactive are those of the source. No cut-off for these calls is given here.", "data": [{"smiles": "O=C(O)CCCCOc1cc(OCCCCC(=O)O)cc(-c2c3nc(cc4[nH]c(c(-c5cc(OCCCCC(=O)O)cc(OCCCCC(=O)O)c5)c5nc(cc6[nH]c2c2cc7ccccc7cc62)-c2cc6ccccc6cc2-5)c2cc5ccccc5cc42)-c2cc4ccccc4cc2-3)c1", "values": [{"measurement": "Activity", "setting": "ECa-109 cell line [1]", "result": 29.7, "unit": "%"}, {"measurement": "pIC50", "setting": "ECa-109 cell line [2]", "result": 6.22}, {"measurement": "selectivity ratio", "setting": "[3]", "result": 8.15}, {"measurement": "Activity", "setting": "[4]", "result": 0.11}, {"measurement": "Activity", "setting": "ECa-109 cell line [5]", "result": "Active"}, {"measurement": "Drug uptake", "setting": "[6]", "result": "Active"}, {"measurement": "Activity", "setting": "ECa-109 cell line [7]", "result": 24.9, "unit": "%"}, {"measurement": "Activity", "setting": "ECa-109 cell line [8]", "result": "Active"}, {"measurement": "Activity", "setting": "[9]", "result": "Non-Toxic"}, {"measurement": "viability at 2 µM", "setting": "ECa-109 cell line [10]", "result": 41.8, "unit": "%"}, {"measurement": "Activity", "setting": "ECa-109 cell line [11]", "result": "Active"}, {"measurement": "Activity", "setting": "ECa-109 cell line [12]", "result": 3.61, "unit": "%"}, {"measurement": "Drug uptake", "setting": "[13]", "result": "Active"}, {"measurement": "Activity", "setting": "ECa-109 cell line [14]", "result": 3.51, "unit": "%"}, {"measurement": "Activity", "setting": "ECa-109 cell line [15]", "result": 1.25, "unit": "%"}, {"measurement": "Activity", "setting": "ECa-109 cell line [16]", "result": "Non-Toxic"}, {"measurement": "Activity", "setting": "[17]", "result": "Toxic"}, {"measurement": "Activity", "setting": "[18]", "result": 0.1}, {"measurement": "Activity", "setting": "ECa-109 cell line [19]", "result": 0.41, "unit": "%"}, {"measurement": "Activity", "setting": "ECa-109 cell line [20]", "result": "Active"}, {"measurement": "Activity", "setting": "[21]", "result": "Non-Toxic"}, {"measurement": "Activity", "setting": "ECa-109 cell line [22]", "result": "Active"}, {"measurement": "IC50 at 24 h", "setting": "[23]", "result": 4.89, "unit": "µM"}, {"measurement": "Activity", "setting": "ECa-109 cell line [24]", "result": "Active"}, {"measurement": "Drug uptake", "setting": "[25]", "result": "Active"}, {"measurement": "viability at 2 µM", "setting": "ECa-109 cell line [26]", "result": 94.8, "unit": "%"}, {"measurement": "Drug uptake", "setting": "[27]", "result": "Active"}]}]}
